Experimental data taken from ChEMBL document CHEMBL1140089 (J Med Chem, 2008).

Molecular target: MAP kinase-activated protein kinase 2 (Homo sapiens, UniProt P49137)
Experiment: Inhibition of human recombinant MK2 expressed in Escherichia coli BL21(DE3) after 60 mins

Chain of MAP kinase-activated protein kinase 2 (P49137 whole entry): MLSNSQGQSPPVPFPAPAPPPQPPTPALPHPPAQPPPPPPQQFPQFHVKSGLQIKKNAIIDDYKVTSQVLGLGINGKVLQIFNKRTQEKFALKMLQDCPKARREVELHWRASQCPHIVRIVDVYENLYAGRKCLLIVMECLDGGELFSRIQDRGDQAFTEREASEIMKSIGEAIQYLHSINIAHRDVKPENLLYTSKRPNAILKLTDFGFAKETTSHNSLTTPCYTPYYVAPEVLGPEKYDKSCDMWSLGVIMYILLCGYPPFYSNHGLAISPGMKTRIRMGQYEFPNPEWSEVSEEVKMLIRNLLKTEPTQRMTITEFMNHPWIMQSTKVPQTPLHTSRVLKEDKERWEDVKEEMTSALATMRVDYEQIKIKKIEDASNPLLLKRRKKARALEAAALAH

Question: For Oc1cccc2ccccc12 [1-NAPHTHOL], which IC50 is on record?
Answer: > 100 µM

Question: How did the IC50 turn out when Oc1cccc2cnccc12 was run?
Answer: 85 µM
